Results on two molecules are retold here after US4745124A, “Orally effective anti-hypertensive agents” (priority 1983, dated 1988).

Where a name gives a salt, the structure may show the parent alone. Read-outs that look alike come from different tables or passages of the source.

Test [1] relates to pressor effects of angiotensin I. The test is described as follows: intravenous effectiveness: blood pressure response to angiotensin I in anesthetized rats. It is filed as in vivo, rat. To be noted: i.v. 1 μmole/Kg, Ex. 247. As to the method: Anesthetized rats were prepared as described in Example 228. After the responsiveness of a given rat to angiotensin I was established, the named compound at 2 μmol/kg, in a volume of 15 μl of 0.01N sodium bicarbonate, was injected via a femoral vein. At timed intervals, the effects of angiotensin I, 400 ng/kg, on mean arterial blood pressure were tested. Results are shown below:
Anesthetized rats were prepared as described in Example 231. After the responsiveness of a given rat to angiotensin I was established, the named compound, at 2 μmol/kg, in a volume of 15 μl of 0.01N sodium bicarbonate, was injected via a femoral vein. At timed intervals, the effects of angiotensin I, 400 ng/kg, on mean arterial blood pressure were tested. Results are shown below:
Anesthetized rats were prepared as described in Example 239. The animals were administered the named compound via a femoral vein in 15 μl of 0.01N sodium bicarbonate, after the control response to 400 ng/kg of angiotensin I was measured. […] The time required for recovery of one half of the lost responsiveness to angiotensin I, following injection of the named compound, was designated t1/2. […] Results are shown for two dose levels:
Anesthetized rats were prepared as described in Example 242. The named compound was administered intravenously via a femoral vein, at the stated dose, in 15 μl of 0.01N sodium bicarbonate. The response to intravenous administration was a rapid decrease in responsiveness to Angtiotensin I, 400 ng/kg, followed by a gradual recovery to the pretreatment level of responsiveness. The time required for recovery of one half the lost responsiveness to angiotensin I, following injection of the named compound, is designated t1/2. […] Results are shown for the three dose levels:
The intravenous effectiveness of the named compound was examined by following the procedure described in Example 244 except that 1 μmole/kg of the drug was given intravenously. The results are shown below:
The intravenous effectiveness of the named compound was examined by following the procedure described in Example 246 except that 1 μmole/Kg of the drug was given intravenously.

The test system is the same in test [2]. The test is described as follows: oral effectiveness: blood pressure response to angiotensin I in anesthetized rats. Particulars: Rattus norvegicus, oral 10 μmol/kg, Ex. 246, read-out: Blood Pressure Response to 400 ng/kg of Angiotensin I. It is filed as in vivo, rat. The procedure: Rats (210-290 g body weight) were fasted overnight and then anesthetized with intraperitoneal pentobarbital, 50-60 mg/kg. Tracheostomy was performed and the animals were ventilated mechanically. A cannula was inserted into a femoral vein for injection of angiotensin I or II, and a second cannula was inserted into a common carotid artery for direct measurement of arterial blood pressure. Heparin, 1,000 units, was injected via the femoral vein to prevent coagulation. Blood pressure was measured with a pressure transducer connected to a polygraph. The rats were injected with 80 ng of angiotensin I or angiotensin II in 20 μl of 0.9 g % NaCl; an amount of antiotensin I or II sufficient to raise mean arterial blood pressure by 27-40 mm Hg. After the responsiveness of a given rat to angiotensins I and II was established, compound (I), at 2 or 5 mg/kg (drug dissolved in 0.5 ml of H2 O plus 10 μl of 1N NaHCO3), was given via a stomach tube. At timed intervals, the effects of 80 ng of angiotensin I or angiotensin II on mean arterial blood pressure were tested.
Rats were prepared as described in Example 222. Compound (II) [N-benzoyl-L-phenylalanylthiopropanoyl)-L-proline] was given orally, via a stomach tube, at a dose of 12 mg/kg or 20 mg/kg. Compound (II) was dissolved in 0.5 ml of H2 O plus 10 μl of 1N NaHCO3. In all other respects, the experimental preparations were exactly as described in Example 222.
Rats (210-290 g body weight) were fasted overnight and then anesthetized with intraperitoneal pentobarbital, 50-60 mg/kg. Tracheostomy was performed and the animals were ventilated mechanically. A cannula was inserted into a femoral vein for injection of angiotensin I or II, and a second cannula was inserted into a common carotid artery for direct measurement of arterial blood pressure. Heparin, 1,000 units, was injected via the femoral vein to prevent coagulation. Blood pressure was measured with a pressure transducer connected to a polygraph. The rats were injected with 160 ng of angiotensin I or 80 ng of angiotensin II in 20 μl of 0.9 g % NaCl; an amount of angiotensin I or II sufficient to raise mean arterial blood pressure by 27-40 mm Hg. After the responsiveness of a given rat to angiotensins I and II was established, compound (B) at 10 mg (drug dissolved in 0.5 ml of H2 O plus 10 μl of 1N NaHCO3), was given via a stomach tube. At timed intervals, the effects of 160 ng of angiotensin I or 80 ng of angiotensin II on mean arterial blood pressure were tested. Results are shown below:
Rats (210-290 g body weight) were fasted overnight and then anesthetized with intraperitoneal pentobarbital, 50-60 mg/kg. Tracheostomy was performed and the animals were ventilated mechanically. A cannula was inserted into a femoral vein for injection of angiotensin I, and a second cannula was inserted into a common carotid artery for direct measurement of arterial blood pressure. Heparin, 1,000 units, was injected via the femoral vein to prevent coagulation. Blood pressure was measured with a pressure transducer connected to a polygraph. The rats were injected with 400 ng/kg of angiotensin I in 20 μl of 0.9 g % NaCl; an amount of angiotensin I sufficient to raise mean arterial blood pressure by 39 mm Hg. After the responsiveness of a given rat to angiotensin I was established, the named compound at 17 μmol/kg (drug dissolved in 0.15 ml of H2 O plus 10 μl of 1N NaHCO3), was given via a stomach tube. At timed intervals, the effects of 400 ng/kg of angiotensin I on mean arterial blood pressure were tested. Results are shown below:
Rats (190-290 g body weight) were fasted overnight and then anesthetized with intraperitoneal pentobarbital, 50-60 mg/kg. Tracheostomy was performed and the animals were ventilated mechanically. A cannula was inserted into a femoral vein for injection of angtiotensin I, and a second cannula was inserted into a common carotid artery for direct measurement of arterial blood pressure. […]

Consider `C[C@H](CSC(=O)C(Cc1ccccc1)NC(=O)c1ccccc1)C(=O)N1CCC[C@H]1C(=O)O` (stereo partly drawn) [potassium salt of N-alpha[3-(N-alpha-benzoyl-D,L-phenylalanylthio)-2-D-methylpropanoyl]-L-proline], for which the “Blood Pressure Response to 400 ng/kg of Angiotensin I” value in test [1] (5 min) is reported as 46 % of Control; in test [1] (10 min), 37 % of Control; in test [1] (15 min), 41 % of Control; in test [1] (20 min), 37 % of Control; in test [1] (30 min), 44 % of Control; in test [1] (40 min), 50 % of Control. Also, the “Blood Pressure Response to 400 ng/kg of Angiotensin I” value in test [1] (50 min) is 39 % of Control; in test [1] (60 min), 46 % of Control; in test [1] (90 min), 52 % of Control; in test [1] (120 min) it was 59 % of Control.
Take `C[C@H](CSC(=O)C(Cc1ccccc1)NC(=O)c1ccccc1)C(=O)N1CCC[C@H]1C(=O)O` (stereo partly drawn) [sodium salt of N-alpha[3-(N-alpha-benzoyl-D,L-phenylalanylthio)-2-D-methylpropanoyl]-L-proline]: the response vs control in vivo at 10 µmol/kg in test [2] (5 min, 5 min) stood at 82%; in test [2] (10 min, 10 min) it was 33%; in test [2] (0.25 h, 15 min), 24%; in test [2] (20 min, 20 min), 27%; in test [2] (0.5 h, 30 min) it was 27%; in test [2] (40 min, 40 min), 22%. Moreover, the response vs control in vivo at 10 µmol/kg in test [2] (50 min, 50 min) stood at 24%; in test [2] (1 h, 60 min) it was 27%; in test [2] (1.5 h, 90 min), 36%; in test [2] (2 h, 120 min) it was 44%; in test [2] (2.5 h, 150 min), 62%; in test [2] (3 h, 180 min), 60%. The response vs control in vivo at 10 µmol/kg in test [2] (3.5 h, 210 min) came out at 71%; in test [2] (4 h, 240 min), 73%.
